# Test results from ChEMBL document CHEMBL1201862, “PubChem BioAssay data set” (2004).
# The source made the active and inactive calls.
# Experiments:
# [1] = ZM109 Env clade C HIV-1 fusion inhibitors, dose response, HeLa effector, CEM target cells, luciferase, cherry-pick (AID 652058); type: functional, cell-based
# [2] = off-target signal loss in HeLa-CEM21 co-culture – HeLa F-luc CTL cells, cherry-picked, counter-screen for HIV-1 Env fusion inhibitor project, dose response (AID 652040); type: functional, cell-based;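 also: potency for signal decrease marking cytotoxic or nonspecific inhibition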
# [3] = inhibitors of HIV Env-driven cell fusion, dose response, cherry-pick (AID 652057); type: functional, cell-based
# [4] = biological target: NAD-dependent protein deacylase sirtuin-5, mitochondrial (Homo sapiens, UniProt Q9NXA8); experiment: SIRT5 desuccinylase inhibitors, dose response, biochemical, fluorescence imaging, cherry-pick, set 5 (AID 720591);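 also: desuccinylation of succinyl peptide AMC substrate read as fluorescence after trypsin release; potency of inhibitors that lower fluorescence and may act on trypsin instead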
# [5] = HepG2 cell cytotoxicity, dose response, cytotoxicity control, plate reader, cherry-pick, antagonist series (AID 743416); type: functional, cell-based
# [6] = LGR2 antagonists, dose response, cell-based, HEK293, CRE-luciferase reporter, cherry pick, set 2 (AID 743343); type: functional;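 also: transfected cells were stimulated with diluted bursicon conditioned medium after compound addition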
# [7] = HEK293 cell cytotoxicity, dose response, cytotoxicity control, plate reader, cherry-picked samples (AID 743446); type: functional, cell-based
# [8] = biological target: Induced myeloid leukemia cell differentiation protein Mcl-1 (Homo sapiens, UniProt Q07820); type: functional
# [9] = A549 cell cytotoxicity, dose response, cytotoxicity control, plate reader, cherry-pick, antagonist series (AID 743412); type: functional, cell-based
# [10] = biological target: T1, Long-chain-fatty-acid--AMP ligase FadD28 (Mycobacterium tuberculosis, UniProt P9WQ59); experiment: Fluorescence polarization aasay to screen for inhibitors that compete for the binding of FadD28 to a bisubstrate Measured in Biochemical System Using Plate Reader - 2147-01_Inhibitor_Dose_CherryPick_Activity.; type: functional, Mycobacterium tuberculosis H37Rv
# T1 sequence (P9WQ59 whole entry): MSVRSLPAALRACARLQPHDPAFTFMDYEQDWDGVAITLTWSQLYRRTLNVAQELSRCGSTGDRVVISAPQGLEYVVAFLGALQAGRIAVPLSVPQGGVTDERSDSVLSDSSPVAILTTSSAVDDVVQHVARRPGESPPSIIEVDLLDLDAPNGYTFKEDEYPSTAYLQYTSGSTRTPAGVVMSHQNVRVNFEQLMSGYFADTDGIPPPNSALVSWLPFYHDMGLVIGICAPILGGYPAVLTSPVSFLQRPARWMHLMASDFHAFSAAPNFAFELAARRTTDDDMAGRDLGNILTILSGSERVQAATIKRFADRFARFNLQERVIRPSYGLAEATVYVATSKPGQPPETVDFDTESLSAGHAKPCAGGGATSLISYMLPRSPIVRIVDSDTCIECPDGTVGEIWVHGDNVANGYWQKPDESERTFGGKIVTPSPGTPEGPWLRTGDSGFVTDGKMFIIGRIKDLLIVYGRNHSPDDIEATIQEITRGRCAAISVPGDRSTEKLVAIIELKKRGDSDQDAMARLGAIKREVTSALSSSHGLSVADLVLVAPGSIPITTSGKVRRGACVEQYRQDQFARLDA
# [11] = biological target: T2, Carboxy-terminal domain RNA polymerase II polypeptide A small phosphatase 1 (Homo sapiens, UniProt Q9GZU7); experiment: inhibitors of CTDSP1, concentration-response testing, biochemical assay, absorbance-based, actives from ultra-high-throughput screening (AID 540297); type: functional
# T2 sequence (Q9GZU7 whole entry): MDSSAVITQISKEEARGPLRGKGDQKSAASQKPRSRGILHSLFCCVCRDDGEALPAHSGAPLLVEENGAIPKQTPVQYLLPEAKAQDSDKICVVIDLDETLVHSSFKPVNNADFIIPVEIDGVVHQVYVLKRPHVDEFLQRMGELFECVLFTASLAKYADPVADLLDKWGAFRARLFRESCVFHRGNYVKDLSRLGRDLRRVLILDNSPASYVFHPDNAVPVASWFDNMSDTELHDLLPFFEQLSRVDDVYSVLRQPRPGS
# [12] = biological target: Eukaryotic translation initiation factor 4E (Mus musculus, UniProt P63073); experiment: eIF4E–eIF4G protein interaction inhibitors, dose response, biochemical, TR-FRET (AID 855); type: functional;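 also: potency for disrupting eIF4E binding to eIF4GI seen as loss of FRET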
# [13] = biological target: T3, Histone-lysine N-methyltransferase NSD2 (Homo sapiens, UniProt O96028); type: biochemical
# T3 sequence (O96028 whole entry): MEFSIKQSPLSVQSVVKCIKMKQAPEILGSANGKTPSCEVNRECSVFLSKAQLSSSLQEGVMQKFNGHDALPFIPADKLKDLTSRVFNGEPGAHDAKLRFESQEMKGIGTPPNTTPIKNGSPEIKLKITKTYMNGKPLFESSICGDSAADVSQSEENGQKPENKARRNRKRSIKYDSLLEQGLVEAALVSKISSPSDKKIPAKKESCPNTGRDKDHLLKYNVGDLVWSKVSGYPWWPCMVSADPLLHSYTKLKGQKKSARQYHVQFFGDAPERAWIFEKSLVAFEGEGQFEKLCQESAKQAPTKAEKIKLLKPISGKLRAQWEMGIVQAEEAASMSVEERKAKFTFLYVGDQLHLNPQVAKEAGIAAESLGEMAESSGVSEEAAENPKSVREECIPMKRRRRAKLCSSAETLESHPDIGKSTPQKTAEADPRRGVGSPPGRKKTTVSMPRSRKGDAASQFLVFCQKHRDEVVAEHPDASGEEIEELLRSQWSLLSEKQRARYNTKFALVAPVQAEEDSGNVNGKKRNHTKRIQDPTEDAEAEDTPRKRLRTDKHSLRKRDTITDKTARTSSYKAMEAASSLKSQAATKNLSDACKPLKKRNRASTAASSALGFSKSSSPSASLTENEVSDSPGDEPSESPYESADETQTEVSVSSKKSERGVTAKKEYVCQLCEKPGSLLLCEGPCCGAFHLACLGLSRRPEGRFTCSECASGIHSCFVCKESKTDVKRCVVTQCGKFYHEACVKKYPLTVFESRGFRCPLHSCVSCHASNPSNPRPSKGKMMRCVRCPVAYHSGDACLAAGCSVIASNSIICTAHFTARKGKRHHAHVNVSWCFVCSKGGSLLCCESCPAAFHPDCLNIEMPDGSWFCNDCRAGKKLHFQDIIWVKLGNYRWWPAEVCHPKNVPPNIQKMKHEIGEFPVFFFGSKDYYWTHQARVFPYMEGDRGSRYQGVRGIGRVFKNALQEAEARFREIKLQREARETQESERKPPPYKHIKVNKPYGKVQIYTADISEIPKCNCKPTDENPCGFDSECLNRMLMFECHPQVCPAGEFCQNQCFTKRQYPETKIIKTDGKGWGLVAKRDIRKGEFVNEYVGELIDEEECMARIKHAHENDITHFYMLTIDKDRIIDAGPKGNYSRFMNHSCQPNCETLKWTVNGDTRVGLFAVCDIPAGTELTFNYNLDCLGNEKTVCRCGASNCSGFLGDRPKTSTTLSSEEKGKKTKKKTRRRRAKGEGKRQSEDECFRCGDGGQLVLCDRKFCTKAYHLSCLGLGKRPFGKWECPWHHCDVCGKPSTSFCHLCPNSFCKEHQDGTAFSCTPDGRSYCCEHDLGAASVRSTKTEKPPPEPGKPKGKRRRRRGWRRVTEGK
# Kallikrein-7 = Kallikrein-7 (Homo sapiens, UniProt P49862); experiment: Fluorescence Intensity-based biochemical primary high throughput dose response assay to identify activators of kallikrein-7 (K7) zymogen.
# cells [14] = type: functional
# [15] = inhibitors of intracellular T. cruzi replication, confirmation, NIH3T3 host cells, beta-gal luminescence (AID 2044); type: functional, cell-based;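 also: intracellular parasites grown in NIH/3T3 mouse fibroblasts as host cells; luminescent beta-galactosidase reporter signal from transgenic T. cruzi replicating inside host cells; inhibitors lower the luminescence signal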
# [16] = cytotoxicity toward NIH3T3 fibroblasts, dose response, counter-screen, cell-based, ATP luminescence, mouse fibroblasts (AID 2010); type: functional;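 also: cells exposed to compound for about 90 hours before reading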
# cells [17] = experiment: cells
# Major prion protein = Major prion protein (Homo sapiens, UniProt P04156); type: functional, cell-based
structure (smiles),measurement,setting,value
CCN(CC)C(=O)c1ncn2c1C(=O)NC[C@@H]2C,AC50,[1],9.08 µM (active)
same,AC50,[2],24.7 µM (active)
same,AC50,[3],8.99 µM (active)
CCCCC[C@H](C)N1C[C@@H](COCc2ccccc2)Oc2cc(N3CCC[C@H]3CO)ccc2S1(=O)=O,AC50,[4],> 30 µM (inactive)
COc1cc(/C=N/Nc2nc(C)nc3c2cnn3-c2ccccc2)ccc1O,AC50,[5],27.1 µM (active)
same,AC50,[6],23.1 µM (active)
same,AC50,[7],> 52 µM (inactive)
same,IC50,[8],9.67 µM (active)
same,AC50,[9],8.71 µM (active)
Cc1ccc(NC(=O)CN2C(=O)N/C(=C/c3cc(C)n(-c4cccc(C(=O)O)c4)c3C)C2=O)cc1,AC50,[10],27.5 µM (active)
same,IC50,[11],7.94 µM (active)
same,IC50,[12],50 µM (inactive)
same,AC50,[13],> 20 µM (inactive)
Cc1oc2c(C)c3oc(=O)c(CCC(=O)NCCCCCC(=O)O)c(C)c3cc2c1C,EC50,Kallikrein-7,> 69.5 µM (inactive)
CC(=O)c1cc2c(cc1NS(=O)(=O)c1ccccc1Br)OCO2,EC50,Kallikrein-7,66.2 µM (inactive)
O=C(O)CCNc1nc(C(F)(F)F)nc2ccccc12,AC50,[4],1.64 µM (active)
COC(=O)C(C)Oc1ccc2cc(-c3ccccc3)c(=O)oc2c1 (stereo not given),IC50,cells [14],6.14 µM (active)
same,EC50,Kallikrein-7,5.16 µM (active)
CCOC(=O)c1c(C)n(C)c2ccc(OCC(O)CNCCc3ccccc3)cc12 (stereo not given),AC50,[5],21.9 µM (active)
same,AC50,[7],> 52 µM (inactive)
same,EC50,[15],0.601 µM (active)
same,EC50,[16],4.89 µM (active)
same,AC50,[9],37.7 µM (active)
CN(C(=O)CSc1cc(C(=O)c2nccn2C)c2ccccc2n1)c1ccccc1,IC50,cells [17],> 138 µM (inactive)
same,IC50,Major prion protein,11.4 µM (inactive)
